Assay results as given in patent US20040035690A1, “Method and apparatus for chemical and biochemical reactions using photo-generated reagents” (The Regents Of The University Of Michigan, priority 1998, published 2004).
“Also recorded” adds a separate entry of the source. No end group written: not given here. dns = not defined here

Experiments:
[1] = Pb^2+ ion binding assay of oligopeptides on microarray (fluorescence); settings: peptide microarray made with acid PGR; lead chloride in buffer
Procedure: (§1) 5-dimethylaminonaphthalene-1-sulfonyl chloride (dansyl chloride, dns) generated fluorescence was also performed by contacting the solid substrate with a mixture of dns (1.25 mmol) and triethylamine (0.125 mmol) in DMF for 4 h at room temperature. The fluorescence detection was done in the same manner as previously described for FAM with the exception that the excitation wavelength was 365 nm.
For the Pb^2+ ion assay, solid substrates comprising oligopeptides were washed with a buffer solution containing 100 mM HEPES (pH 7.1) and 10% methanol. Samples were then treated with 0.1 mM lead chloride in buffer overnight at room temperature. After washing with buffer solution and methanol the solid substrates were left to dry in an inert atmosphere in the dark.

[2] = As^3+ ion binding assay of oligopeptides on microarray (fluorescence); settings: peptide microarray made with acid PGR; NaAsO2
Procedure: as §1
For the As^3+ ion assay, the assay was performed by the same procedure as the Pb^2+ assay but the buffer was 10 mM sodium acetate (pH 4.0) containing 100 mM NaCl and 0.1 mM sodium arsenite (NaAsO2) was the metal ion solution.

mouse MAb DO-1 = test: Oligopeptide immunoassay with MAb DO-1 and FITC-tagged secondary antibody; type: binding; settings: hexapeptide microarray made with acid PGR, FITC-tagged rabbit anti-mouse IgG
Procedure: Solid substrates comprising oligopeptids were washed with PBS (phosphate-buffered saline, 25 mM NaH2PO4, 125 mM NaCl, pH 7.4), PBST (PBS, 0.2% (V/V) Tween 20), and PBS, respectively. Next, the solid substrates were then incubated with mouse MAb DO-1, which recognizes amino acid residue 20-25 of human tumor suppressor protein p53, in PBS at room temperature for 2 h. After washing with PBST and PBS, samples were treated with FITC-tagged secondary rabbit anti-mouse immunoglobulin (IgG) overnight at 4° C. Following washing with PBST and PBS, fluorescence of the solid substrate was measured.

| fluorescence labeling / fluorescence intensity on binding of MAb DO-1 (mouse MAb DO-1) | Substance | fluorescence labeling / fluorescence intensity on Pb^2+ binding [1] | other results |
| --- | --- | --- | --- |
| – | H2N-Glu-Glu-Glu-Glu (EEEE; printed: Glu-Glu-Glu-Glu) [tetrapeptide analogue on the microarray] | increase is fluorescence is not observed | – |
| – | dns-Glu-Glu-Glu-Glu | – | fluorescence labeling / fluorescence intensity on As^3+ binding [2]: fluoresence intensity is greatest; also recorded: selective labeling |
| – | dns-Cys-Cys-Cys-Cys | increase is fluorescence is not observed | – |
| selective labeling | SDLHKL [hexapeptide, amino acid residue 20-25 of human p53 protein] | – | fluorescence labeling / fluorescence intensity on binding of MAb DO-1 (mouse MAb DO-1; listed as SDLHKL): fluorescence intensity is detected |
| fluorescence intensity is not detected | SGLHKL [hexapeptide analogue of SDLHKL on the microarray] | – | – |
| – | dns-Gly-Gly-Gly-Gly (dns-GGGG; reading uncertain; also: printed as dns-Gly-Gly-Gly-Gly) [das-Gly-Gly-Gly-Gly, dansyl-labeled tetrapeptide] | increase is fluorescence is not observed | – |
| – | dns-Glu-Cys-Glu-Glu | significant increase in fluorescence intensity; also recorded: selective labeling | – |
| fluorescence intensity is not detected | DSLGKL: hexapeptide analogue of SDLHKL on the microarray (DSLHKL; printed: Asp-Ser-Leu-His-Lys-Leu) | – | – |
